pIC50: −log10 of the molar value.
Legend:
[1] = test system: U87-MG human glioblastoma cell line; assay: cells; conditions: Homo sapiens, U-87 MG, 72 h
HGC-27 tumors = assay: Human gastric tumor xenografts (HGC-27) in athymic nude mice, tumor volume % T/C; format: in vivo
Protocol: Female athymic nude mice (Harlan Laboratories Models, S.L. (Barcelona, Spain) were utilized for all experiments. Animals were housed in individually ventilated cages, up to ten per cage in a 12-hour light-dark cycle at 21-23° C. and 40-60% humidity. The mice were allowed free access to irradiated standard rodent diet and sterilized water. Animals were acclimated for at least 5 days prior to tumor implantation with a tumor cell suspension.
HGC-27 cells were grown at 37° C. with 5% CO2 in Iscove's modified Dulbeco's medium (IDMD).
PM01183 was provided in the form of vials of lyophilized PM01183 cake which was reconstituted with water for infusion to a concentration of 0.2 mg/mL. The PM01183 stock solution was further diluted in 5% glucose solution for injection to the dosing formulation concentrations. Cisplatin and 5-fluorouracil were provided as solutions prepared by diluting the product with 0.9% saline solution for injection to the target final concentration.
Dose level groups were administered either as single agents or in combination.
Comparison of the median tumor volume in the treatment groups (T) to the median tumor volume in the control group (T/C×100%) was used for evaluation of the antitumor efficacy.

[2] = test system: A673 human rhabdomyosarcoma cell line; assay: cells; conditions: Homo sapiens, A673, 72 h
Outline: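 A673 cells seeded at 5,000 per well, grown 24 h drug-free, then exposed to compounds for 72 h. Viability by MTT reduction (8 h, 37 °C), formazan dissolved in DMSO. Results expressed as percentage of control cell growth.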

[3] = PM01183 0.045 mg/kg iv days 0,7, 5-fluorouracil study
[4] = PM01183 0.045 mg/kg iv days 0,7, cisplatin study
[5] = PM01183 0.09 mg/kg iv days 0,7, 5-fluorouracil study
[6] = PM01183 0.09 mg/kg iv days 0,7, cisplatin study
[7] = PM01183 0.135 mg/kg iv days 0,7, 5-fluorouracil study
[8] = PM01183 0.135 mg/kg iv days 0,7, cisplatin study
[9] = PM01183 0.18 mg/kg iv days 0,7, 5-fluorouracil study
[10] = PM01183 0.18 mg/kg iv days 0,7, cisplatin study

SMILES: COc1ccc2[nH]c3c(c2c1)CCN[C@]31CS[C@@H]2c3c(OC(C)=O)c(C)c4c(c3[C@H](COC1=O)N1[C@@H]2[C@H]2c3c(cc(C)c(OC)c3O)C[C@@H]([C@@H]1O)N2C)OCO4 [PM01183]
- pIC50 [1]: 8.35
- % T/C on day 0 (HGC-27 tumors; [3]): 99.9%
- % T/C on day 2 (HGC-27 tumors; [3]): 84.3%
- % T/C on day 5 (HGC-27 tumors; [3]): 103.2%
- % T/C on day 7 (HGC-27 tumors; [3]): 104.6%
- % T/C on day 9 (HGC-27 tumors; [3]): 103.5%
- % T/C on day 12 (HGC-27 tumors; [3]): 101.6%
- % T/C on day 14 (HGC-27 tumors; [3]): 85.0%
- % T/C on day 0 (HGC-27 tumors; [4]): 98.9%
- % T/C on day 3 (HGC-27 tumors; [4]): 85.9%
- % T/C on day 5 (HGC-27 tumors; [4]): 83.1%
- % T/C on day 7 (HGC-27 tumors; [4]): 92.1%
- % T/C on day 10 (HGC-27 tumors; [4]): 76.4%
- % T/C on day 12 (HGC-27 tumors; [4]): 81.6%
- % T/C on day 14 (HGC-27 tumors; [4]): 88.5%
- % T/C on day 0 (HGC-27 tumors; [5]): 100.6%
- % T/C on day 2 (HGC-27 tumors; [5]): 90.5%
- % T/C on day 5 (HGC-27 tumors; [5]): 87.6%
- % T/C on day 7 (HGC-27 tumors; [5]): 83.4%
- % T/C on day 9 (HGC-27 tumors; [5]): 82.6%
- % T/C on day 12 (HGC-27 tumors; [5]): 76.7%
- % T/C on day 14 (HGC-27 tumors; [5]): 67.7%
- % T/C on day 0 (HGC-27 tumors; [6]): 98.6%
- % T/C on day 3 (HGC-27 tumors; [6]): 67.5%
- % T/C on day 5 (HGC-27 tumors; [6]): 67.9%
- % T/C on day 7 (HGC-27 tumors; [6]): 66.1%
- % T/C on day 10 (HGC-27 tumors; [6]): 70.2%
- % T/C on day 12 (HGC-27 tumors; [6]): 60.3%
- % T/C on day 14 (HGC-27 tumors; [6]): 65.0%
- % T/C on day 0 (HGC-27 tumors; [7]): 100.2%
- % T/C on day 2 (HGC-27 tumors; [7]): 81.5%
- % T/C on day 5 (HGC-27 tumors; [7]): 58.7%
- % T/C on day 7 (HGC-27 tumors; [7]): 61.4%
- % T/C on day 9 (HGC-27 tumors; [7]): 60.2%
- % T/C on day 12 (HGC-27 tumors; [7]): 54.6%
- % T/C on day 14 (HGC-27 tumors; [7]): 55.1%
- % T/C on day 0 (HGC-27 tumors; [8]): 97.9%
- % T/C on day 3 (HGC-27 tumors; [8]): 71.6%
- % T/C on day 5 (HGC-27 tumors; [8]): 59.9%
- % T/C on day 7 (HGC-27 tumors; [8]): 47.8%
- % T/C on day 10 (HGC-27 tumors; [8]): 39.3%
- % T/C on day 12 (HGC-27 tumors; [8]): 37.1%
- % T/C on day 14 (HGC-27 tumors; [8]): 38.3%
- % T/C on day 0 (HGC-27 tumors; [9]): 99.6%
- % T/C on day 2 (HGC-27 tumors; [9]): 78.6%
- % T/C on day 5 (HGC-27 tumors; [9]): 50.9%
- % T/C on day 7 (HGC-27 tumors; [9]): 43.3%
- % T/C on day 9 (HGC-27 tumors; [9]): 41.0%
- % T/C on day 12 (HGC-27 tumors; [9]): 33.0%
- % T/C on day 14 (HGC-27 tumors; [9]): 29.2%
- % T/C on day 0 (HGC-27 tumors; [10]): 99.6%
- % T/C on day 3 (HGC-27 tumors; [10]): 65.9%
- % T/C on day 5 (HGC-27 tumors; [10]): 55.6%
- % T/C on day 7 (HGC-27 tumors; [10]): 38.7%
- % T/C on day 10 (HGC-27 tumors; [10]): 33.5%
- % T/C on day 12 (HGC-27 tumors; [10]): 24.3%
- % T/C on day 14 (HGC-27 tumors; [10]): 24.3%
- pIC50 [2]: 8.66
